Laboratory results taken from US4605744A, “Imidazole derivatives” (Hoffmann-La Roche Inc., priority 1985, dated 1986).
Where a name gives a salt, the structure may show the parent alone.

How the values were obtained:
Assay in all cases: In vitro antibacterial activity (MIC)
Assay type in all cases: cell-based
E. cloacae 9570A = settings: Enterobacter cloacae, read-out: MIC
Summary of the method: (§1)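 Inoculated with 1.5 μl per well of a 10^-2 overnight-culture dilution, Mueller-Hinton broth dilutions (128–0.008 μg/ml) are incubated overnight at 37° C. No-growth endpoint defines MIC.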

S. pneumoniae 6302 = settings: Streptococcus pneumoniae, 6302, S. pneumoniae 6302; read-out: MIC
Summary of the method: as §1

P. vulgaris 101 = settings: Proteus vulgaris, 101, P. vulgaris 101; read-out: MIC
Summary of the method: as §1

S. aureus Smith = settings: Staphylococcus aureus, S. aureus Smith; read-out: MIC
Summary of the method: as §1

S. marcescens S4 = settings: Serratia marcescens, S4, S. marcescens S4; read-out: MIC
Summary of the method: as §1

C. freundii CDC6 = settings: Citrobacter freundii, CDC6, C. freundii CDC6; read-out: MIC
Summary of the method: as §1

E. cloacae 6951 = settings: Enterobacter cloacae, 6951, E. cloacae 6951; read-out: MIC
Summary of the method: as §1

P. mirabilis 620A = settings: Proteus mirabilis, 620A, P. mirabilis 620A; read-out: MIC
Summary of the method: as §1

S. schottmuelleri = settings: read-out: MIC
Summary of the method: as §1

E. cloacae 5699 = settings: Enterobacter cloacae, 5699, E. cloacae 5699; read-out: MIC
Summary of the method: as §1

P. aeruginosa 503-820 = settings: Pseudomonas aeruginosa, 503820; P. aeruginosa 503-820; read-out: MIC
Summary of the method: as §1

E. aerogenes 8 = settings: Klebsiella aerogenes; E. aerogenes 8; read-out: MIC
Summary of the method: as §1

E. coli 4 = settings: Escherichia coli, 4, E. coli 4; read-out: MIC
Summary of the method: as §1

S. pneumoniae SC = settings: Streptococcus pneumoniae, read-out: MIC
Summary of the method: as §1

E. coli 5152 = settings: Escherichia coli, 5152, E. coli 5152; read-out: MIC
Summary of the method: as §1

S. aureus 1059B = settings: Staphylococcus aureus, read-out: MIC
Summary of the method: as §1

S. marcescens S1 = settings: Serratia marcescens, S1, S. marcescens S1; read-out: MIC
Summary of the method: as §1

P. mirabilis 90 = settings: Proteus mirabilis, 90, P. mirabilis 90; read-out: MIC
Summary of the method: as §1

P. vulgaris 100 = settings: Proteus vulgaris; P. vulgaris 100; read-out: MIC
Summary of the method: as §1

S. marcescens S2 = settings: Serratia marcescens; S. marcescens S2; read-out: MIC
Summary of the method: as §1

S. marcescens S5 = settings: Serratia marcescens, S5, S. marcescens S5; read-out: MIC
Summary of the method: as §1

K. pneumoniae A = settings: Klebsiella pneumoniae, K. pneumoniae A; read-out: MIC
Summary of the method: as §1

E. coli 48 = settings: Escherichia coli, 48, E. coli 48; read-out: MIC
Summary of the method: as §1

E. cloacae P99 = settings: Enterobacter cloacae, P99, E. cloacae P99
Summary of the method: as §1

S. pyogenes 503-782 = settings: Streptococcus pyogenes, 503782; S. pyogenes 503-782; read-out: MIC
Summary of the method: as §1

E. coli R-563 = settings: Escherichia coli, R563, E. coli R-563; read-out: MIC
Summary of the method: as §1

K. pneumoniae 4964 = settings: Klebsiella pneumoniae, 4964, K. pneumoniae 4964; read-out: MIC
Summary of the method: as §1

P. aeruginosa 8780 = settings: Pseudomonas aeruginosa; P. aeruginosa 8780; read-out: MIC
Summary of the method: as §1

P. mirabilis 503-1136 = settings: Proteus mirabilis, 5031136, P. mirabilis 503-1136; read-out: MIC
Summary of the method: as §1

C. freundii 8ASM = settings: Citrobacter freundii, 8ASM, C. freundii 8ASM; read-out: MIC
Summary of the method: as §1

E. cloacae 214 = settings: Enterobacter cloacae, 214, E. cloacae 214; read-out: MIC
Summary of the method: as §1

E. coli 503-455 = settings: Escherichia coli, 503455, E. coli 503-455; read-out: MIC
Summary of the method: as §1

P. mirabilis 2 = settings: Proteus mirabilis, 2, P. mirabilis 2; read-out: MIC
Summary of the method: as §1

S. pneumoniae 6301 = settings: Streptococcus pneumoniae, 6301, S. pneumoniae 6301; read-out: MIC
Summary of the method: as §1

C. diversus CDC 1663-72 = settings: Citrobacter koseri, CDC166372; C. diversus CDC 1663-72; read-out: MIC
Summary of the method: as §1

E. cloacae 24 = settings: Enterobacter cloacae, 24, E. cloacae 24; read-out: MIC
Summary of the method: as §1

P. aeruginosa POW 151 = settings: Pseudomonas aeruginosa, POW151
Summary of the method: as §1

E. aerogenes 503-478 = settings: Klebsiella aerogenes, 503478, E. aerogenes 503-478; read-out: MIC
Summary of the method: as §1

K. pneumoniae 503-994 = settings: Klebsiella pneumoniae, 503994, K. pneumoniae 503-994; read-out: MIC
Summary of the method: as §1

K. pneumoniae 5096 = settings: Klebsiella pneumoniae; K. pneumoniae 5096; read-out: MIC
Summary of the method: as §1

P. aeruginosa 5712 = settings: Pseudomonas aeruginosa; P. aeruginosa 5712; read-out: MIC
Summary of the method: as §1

P. aeruginosa 6148B = settings: Pseudomonas aeruginosa, read-out: MIC
Summary of the method: as §1

P. aeruginosa 503-56 = settings: Pseudomonas aeruginosa, 50356, P. aeruginosa 503-56; read-out: MIC
Summary of the method: as §1

P. vulgaris ATCC 6380 = settings: Proteus vulgaris, ATCC6380, P. vulgaris ATCC 6380; read-out: MIC
Summary of the method: as §1

## Cc1nc(C)n(CCCC2CCN(C=N[C@@H]3C(=O)N4[C@@H]3SC(C)(C)[C@@H]4C(=O)O)CC2)c1C [E, [2S-(2alpha,5alpha,6beta)]-6[[4-[3-[(2,4,5-trimethyl-1H-imidazol-1-yl)propyl]-1-piperidinyl]methylene]amino]-3,3-dimethyl-7-oxo-4-thia-1-azabicyclo[3.2.0]heptane-2-carboxylic acid hydrate hydrochloride]
E. cloacae 9570A
  MIC: 0.125 µg/mL
S. pneumoniae 6302
  MIC: 1 µg/mL
P. vulgaris 101
  MIC: 4 µg/mL
S. aureus Smith
  MIC: 8 µg/mL
S. marcescens S4
  MIC: 0.5 µg/mL
C. freundii CDC6
  MIC: 0.125 µg/mL
E. cloacae 6951
  MIC: 8 µg/mL
P. mirabilis 620A
  MIC: 128 µg/mL
S. schottmuelleri
  MIC: 0.062 µg/mL
E. cloacae 5699
  MIC: 0.125 µg/mL
P. aeruginosa 503-820
  MIC: > 128 µg/mL
E. aerogenes 8
  MIC: 32 µg/mL
E. coli 4
  MIC: 4 µg/mL
S. pneumoniae SC
  MIC: 0.5 µg/mL
E. coli 5152
  MIC: 8 µg/mL
S. aureus 1059B
  MIC: 64 µg/mL
S. marcescens S1
  MIC: 1 µg/mL
P. mirabilis 90
  MIC: 0.5 µg/mL
P. vulgaris 100
  MIC: 8 µg/mL
S. marcescens S2
  MIC: 0.5 µg/mL
S. marcescens S5
  MIC: 1 µg/mL
K. pneumoniae A
  MIC: 0.062 µg/mL
E. coli 48
  MIC: 0.062 µg/mL
E. cloacae P99
  MIC: 0.125 µg/mL
S. pyogenes 503-782
  MIC: 128 µg/mL
E. coli R-563
  MIC: 4 µg/mL
K. pneumoniae 4964
  MIC: 1 µg/mL
P. aeruginosa 8780
  MIC: > 128 µg/mL
P. mirabilis 503-1136
  MIC: 4 µg/mL
C. freundii 8ASM
  MIC: < 0.008 µg/mL
E. cloacae 214
  MIC: 0.5 µg/mL
E. coli 503-455
  MIC: 2 µg/mL
P. mirabilis 2
  MIC: 0.5 µg/mL
S. pneumoniae 6301
  MIC: 1 µg/mL
C. diversus CDC 1663-72
  MIC: 0.062 µg/mL
E. cloacae 24
  MIC: 0.5 µg/mL
P. aeruginosa POW 151
  MIC: > 128 µg/mL
E. aerogenes 503-478
  MIC: 1 µg/mL
K. pneumoniae 503-994
  MIC: 0.062 µg/mL
K. pneumoniae 5096
  MIC: > 128 µg/mL
P. aeruginosa 5712
  MIC: > 128 µg/mL
P. aeruginosa 6148B
  MIC: > 128 µg/mL
P. aeruginosa 503-56
  MIC: > 128 µg/mL
P. vulgaris ATCC 6380
  MIC: 0.062 µg/mL

## CC1(C)S[C@@H]2[C@H](N=CN3CCC(CC4=NCCN4)CC3)C(=O)N2[C@H]1C(=O)O [M, [2S-(2alpha,5alpha,6beta)]-6-[[[4-[(4,5-dihydro-1H-imidazol-2-yl)methyl]-1-piperidinyl]methylene]amino]-3,3-dimethyl-7-oxo-4-thia-1-azabicyclo[3.2.0]heptane-2-carboxylic acid hydrochloride]
E. cloacae 9570A
  MIC: 0.25 µg/mL
S. pneumoniae 6302
  MIC: 1 µg/mL
P. vulgaris 101
  MIC: 16 µg/mL
S. aureus Smith
  MIC: 4 µg/mL
S. marcescens S4
  MIC: 1 µg/mL
C. freundii CDC6
  MIC: 0.125 µg/mL
E. cloacae 6951
  MIC: 32 µg/mL
P. mirabilis 620A
  MIC: > 128 µg/mL
S. schottmuelleri
  MIC: 0.062 µg/mL
E. cloacae 5699
  MIC: 0.25 µg/mL
P. aeruginosa 503-820
  MIC: 64 µg/mL
E. aerogenes 8
  MIC: 32 µg/mL
E. coli 4
  MIC: 0.062 µg/mL
S. pneumoniae SC
  MIC: 1 µg/mL
E. coli 5152
  MIC: 16 µg/mL
S. aureus 1059B
  MIC: 32 µg/mL
S. marcescens S1
  MIC: 0.25 µg/mL
P. mirabilis 90
  MIC: 0.5 µg/mL
P. vulgaris 100
  MIC: 8 µg/mL
S. marcescens S2
  MIC: 0.25 µg/mL
S. marcescens S5
  MIC: 1 µg/mL
K. pneumoniae A
  MIC: 0.062 µg/mL
E. coli 48
  MIC: 0.125 µg/mL
E. cloacae P99
  MIC: 0.062 µg/mL
S. pyogenes 503-782
  MIC: 32 µg/mL
E. coli R-563
  MIC: 0.062 µg/mL
K. pneumoniae 4964
  MIC: 2 µg/mL
P. aeruginosa 8780
  MIC: 128 µg/mL
P. mirabilis 503-1136
  MIC: 8 µg/mL
C. freundii 8ASM
  MIC: 0.062 µg/mL
E. cloacae 214
  MIC: 0.25 µg/mL
E. coli 503-455
  MIC: 2 µg/mL
P. mirabilis 2
  MIC: 0.5 µg/mL
S. pneumoniae 6301
  MIC: 1 µg/mL
C. diversus CDC 1663-72
  MIC: 0.062 µg/mL
E. cloacae 24
  MIC: 0.5 µg/mL
P. aeruginosa POW 151
  MIC: > 128 µg/mL
E. aerogenes 503-478
  MIC: 4 µg/mL
K. pneumoniae 503-994
  MIC: 0.25 µg/mL
K. pneumoniae 5096
  MIC: > 128 µg/mL
P. aeruginosa 5712
  MIC: 128 µg/mL
P. aeruginosa 6148B
  MIC: 32 µg/mL
P. aeruginosa 503-56
  MIC: 32 µg/mL
P. vulgaris ATCC 6380
  MIC: 0.25 µg/mL
